Where “and” joins values, the source holds several entries; their conditions need not be identical. Identical values can stand only once. Like-named read-outs stand apart in the source and are kept apart here.
How the values were obtained:
[1] = Particle size distribution, microscopic method (Japanese Pharmacopoeia); type: physicochemical; details: for 50% Particle Size: resins of Examples 1-7 and reference, method of Example 9
Protocol: The particle size of the endotoxin-adsorbent was determined based on the particle size distribution method. The particle distribution analysis was performed according to “The method for determining particle size distribution. Method 1: Microscopic method” in the second supplement of the general test procedures, section 65, Japanese Pharmacopoeia, 13th Issue. The 50% particle size (μm) was explained as the diameter of particles of the corresponding values of the accumulative volume of particles is 50%.
The particle size distribution was measured according to “Measurement of Particle Size Distribution. Method 1: Microscopic method” in the second supplement of the general test procedures, Section 65, Japanese Pharmacopoeia, 13th Issue. The microscope and camera used for this experiment was Nikon ECLIPSE E600 and Victor KY-F55B, respectively. The collected data was analyzed using Nano Hunter NS2K-Pro. The 50% particle size of RPMB was 213 μm, and the content of small particles not more than 5 μm in a diameter was 0%.

[2] = tested on: autoantibody mediated, LPS-induced arthritis; test: Autoantibody mediated, LPS-induced arthritis model; type: in vivo, DBA/1JNCrj mice; details: experiment 1, day 7; for Severity of Arthritis (score): average of 5 mice, maximum 16 per mouse; for Incidence of Arthritis: mice with arthritis/5
From the text: The therapeutic effect of the endotoxin-adsorbent on autoimmune diseases can be determined in the mouse arthritis model as described in our previous invention, JP-A 2006-151914. Briefly, arthritis can be induced in 100% of mice by IP injection of enough amounts of anti-type II collagen monoclonal antibody cocktail (Chondrex Inc., Redmond, Wash., USA) within 3 days (Terato K et al. Induction of arthritis with monoclonal antibodies to collagen. J. Immunol. 148:2103-2108, 1992). By reducing the dose of the monoclonal antibody cocktail to 2 mg, all mice remained normal without developing arthritis. However, oral administration of 3 mg of LPS on 3 consecutive days from day 0, day 1, day 2 […] into these mice induced clinically apparent arthritis, which reached the peak on day 6-7. Furthermore, one group of mice was co-administered with indomethasin and ovoinhibitor, a protease-inhibitor purified from egg white. The combination of indomethasin and ovoinhibitor was used to increase the mucosal permeability of gastro-intestinal mucosa. In these mice, the effect of LPS was more significant, and more severe arthritis was induced by oral administration of a same dose of LPS. Using this arthritis model induced by a combination of monoclonal antibody and LPS, the therapeutic effect of the endotoxin-adsorbent can be determined. The benefit of this model is multifold: time of experimentation is short compared with an authentic collagen-induced arthritis model, the standard deviation of severity of arthritis among individual mice is much less, and the effect of the LPS-adsorbent is clearly determined.
DBA/1JNCrj mice (Japan Charles River) were divided into 5 groups (G1-G5, 5 mice per group). In order to increase the mucosal permeability, all mice received 40 μg of indomethasin (Sigma) and 2 mg of ovomucoid (Sigma) for 5 consecutive days from day −6 to −2 by the oral route. On day 0, all mice received an IV injection of 0.2 mL of arthritogenic monoclonal antibody cocktail (10 mg/mL). Endotoxin derived from E. coli O-111 (Phenol extracted LPS, Sigma) was dissolved in PBS at 7.5 mg/mL, and 0.2 mL of this solution was administered into G1-G4 mice by the oral route for 3 consecutive days from day 0 to 2. Endotoxin-adsorbent, RPMB-1, was suspended in distilled water at 100 mg/mL, and deaerated by a vacuum pump to keep the particles in uniform suspension by preventing the aggregation of the particles. The RPMB-1 suspension was administered to mice at doses of 0.125 mL (G2), 0.25 mL (G3) and 0.5 mL (G4) twice a day for 4 consecutive days from day 0 to 3 after LPS administration. G1 received 0.25 mL of water alone. Mice in G5, a positive control of arthritis, received IP injection of 0.1 mL of LPS solution (0.5 mg/mL in PBS) on day 3.
Severity of arthritis was scored by 5 grades, 0: normal without any swelling, 1: clinically apparent swelling of one digit, 2: moderate redness and swelling of more than 2 digits or moderate redness and swelling of the entire paw, 3: severe redness and swelling of the entire paws, and 4: maximum inflamed limb with involvement of multiple joints. The sum of the arthritis score (maximum 16 per mouse) of individual animals was calculated. The effect of the endotoxin-adsorbent was calculated based on the average score of 5 mice using the following equation: Suppression of arthritis(%)=(1−Average score of test group/Average score of control group)×100
Since the arthritis scores reached a maximum on day 7, the effect of the endotoxin-adsorbent was calculated using the scores on day 7. The suppression of arthritis by RPMB prepared in EXAMPLE 2 at 25 mg, 50 mg and 100 mg per mouse by oral administration is shown in Table 3.

[3] = type: binding, E. coli O-111; details: for LPS Activity Remaining, 10 mm / LPS Activity Remaining, 20 mm / LPS Activity Remaining, Before: 1 mL LPS 5 μg/mL; for LPS Activity Remaining, 10 mm / LPS Activity Remaining, 20 mm: 37° C.; for LPS Activity Remaining, 10 mm: 10 minutes after adding resin; for LPS Activity Remaining, 20 mm: 20 minutes after adding resin; for LPS Activity Remaining, Before: supernatant before adding resin (baseline)
Protocol: Endotoxin was assayed by an end point colorimetric assay method using Endospecy-ES24S kit (Seikagaku Kogyo, Japan). Lipopolysaccharide (LPS) from E. coli O-111 (Sigma L4130) was dissolved in pyrogen-free water at 5 μg/mL. One mL of this LPS solution was mixed with 50 μg and 100 μg of RPMB-1, and 100 μg of polymixin B-unconjugated resin (control) and incubated at 37° C. with stirring. Endotoxin levels were determined in the supernatant before, 10 and 20 minutes after adding the resins.

[4] = Endotoxin adsorption and elimination capacity (2), LPS-binding capacity from OD210 of supernatant; parameters: species or system E. coli O-111; details: for Endotoxin-Binding capacity (LP5 mg/g*): converted to dry weight of LPS per gram resin; for Endotoxin-Binding Capacity: per gram resin, method of Example 11
Protocol: The LPS binding capacity of the endotoxin-adsorbent in a test tube was determined according to the method described in “endotoxin test procedures” in Japanese Pharmacopoeia, in addition to a simple assay method of LPS by measuring OD values, which was developed during this invention. The experimental procedures and results are shown in EXAMPLE 10 and 11 in detail.
The endotoxin-binding capacity of polymixin B conjugates was also studied. LPS (Sigma L4130) was dissolved in pyrogen-free water at 0.2 mg/mL, and 4 mL of this solution was added to a test tube containing 20.6 mg of RPMB-1, and incubated at 37° C. with stirring. The supernatant was collected every 30 minutes by centrifugation and the OD values at 210 nm was determined. The OD210 value was dropped from 1 to 0.6 within the first 30 minutes of incubation and remained unchanged afterwards. […] Therefore, it was assumed that 20.6 mg of LPS adsorbent added in the first test tube was saturated with LPS. Accordingly, an LPS adsorption capacity of RPMB-1 was calculated based on the OD value changes of LPS solution. Since the LPS preparation used in this experiment was not pure and contaminated by DNA and proteins, it was assumed that the final OD value of 0.4 reflected the OD value of such contaminants. Based on this assumption, it was calculated that 1 g of RPMB is capable of binding approximately 25.9 mg of LPS (Sigma L4130) using the following formula: (0.8 mg×0.4/0.6)/0.0206=25.9 mg Since the endotoxin unit of this LPS preparation is 1.1×10^6 EU/mg, it was calculated that 1 g of RPMB-1 is capable of binding 29×10^6 EU of endotoxin.
Polymixin B-conjugated resins prepared in Examples 1-7 were analyzed for their particle size distribution by the method described in Example 9 and assayed for the endotoxin-binding capacity by the method described in Example 11 to study the relationship between particle size and LPS-binding capacity. AffiPrep poplymixin B (BioRad, USA) was used as a reference.
The endotoxin-binding capacity of individual batches of endotoxin-adsorbents prepared by conjugating with 3 million units of polymixin B was compared and expressed as endotoxin units (EU) per gram weight of resin as well as LPS weight per gram resin. The weight of LPS was obtained by converting the EU values based on the EU value per mg of LPS preparation (Sigma L4130, LPS preparation from E. coli O-111, B4, by trichloroacetic acid extraction) used for this experiment.

[5] = tested on: autoantibody mediated, LPS-induced arthritis; test: Autoantibody mediated, LPS-induced arthritis model; type: in vivo, DBA/1JNCrj mice; details: experiment 2; for Severity of Arthritis (score) / Incidence of Arthritis: 10 mg/mouse oral; for Severity of Arthritis (score): average of 5 mice, maximum 16 per mouse; for Incidence of Arthritis: mice with arthritis/5; for effect on development of arthritis (in words): dose of 10 mg per mouse

| Substance | 50% Particle Size [1] [μm] | Endotoxin-Binding capacity (LP5 mg/g*) [4] [mg/g] | Endotoxin-Binding Capacity [4] | Severity of Arthritis (score) [5] [score] | Incidence of Arthritis [5] | effect on development of arthritis (in words) [5] | other results |
| --- | --- | --- | --- | --- | --- | --- | --- |
| Epoxyacryl Resin-Polymixin B Conjugate [RPMB-1] | 32 | 26.5 | 29 × 10^6 EU/g | – | – | – | Severity of Arthritis (score) ([2]; 25 mg/mouse oral): 9 score and 6.4 ± 1.8 score; Incidence of Arthritis ([2]; 25 mg/mouse oral): 4 out of 5 and 4/5; Severity of Arthritis (score) ([2]; 50 mg/mouse oral): 2 score and 2 ± 2.8 score; Incidence of Arthritis ([2]; 50 mg/mouse oral): 2 out of 5 and 2/5; Severity of Arthritis (score) ([2]; 100 mg/mouse oral): 0 ± 0 score; Incidence of Arthritis ([2]; 100 mg/mouse oral): None of the five mice and 0/5; LPS Activity Remaining, 10 mm ([3]; resin amount 50 μg): 2403 EU/mL; LPS Activity Remaining, 20 mm ([3]; resin amount 50 μg): 1207 EU/mL; LPS Activity Remaining, Before ([3]; resin amount 50 μg): 5632 EU/mL; LPS Activity Remaining, 10 mm ([3]; resin amount 100 μg): 1004 EU/mL; LPS Activity Remaining, 20 mm ([3]; resin amount 100 μg): 170 EU/mL; LPS Activity Remaining, Before ([3]; resin amount 100 μg): 5526 EU/mL; LPS adsorption (in words) ([3]; versus polymixin B-unconjugated control resin): specifically adsorbed; OD value of supernatant after adding fresh resin ([4]; 20.5 mg fresh resin added to the supernatant, reduced from 0.6): 0.4; OD210 value of supernatant ([4]; 20.6 mg resin in 4 mL LPS 0.2 mg/mL, 37° C., within first 30 minutes, dropped from 1): 0.6; endotoxin bound by 1 g of resin ([4]; per 1 g resin, calculated with 1.1×10^6 EU/mg LPS): 29×10^6 EU |
| Epoxyacryl Resin-Polymixin B Conjugate [RPMB-2] | 32 | 105 | 120 × 10^6 EU/g | 0 ± 0 | 0/5 | suppressed the development of arthritis almost completely | – |
| Epoxyacryl Resin-Polymixin B Conjugate [RPMB] | 213 | 17.5 | 20 × 10^6 EU/g | – | – | – | Distribution of Particle Size: 10% Diameter ([1]; 1006 particles analyzed): 160 (μm); Distribution of Particle Size: 90% Diameter ([1]; 1006 particles analyzed): 266 (μm); Distribution of Particle Size: Average Diameter ([1]; 1006 particles analyzed): 197 (μm); content of small particles not more than 5 μm in a diameter ([1]; 1006 particles analyzed): 0%; LPS bound by 1 g of resin ([4]; per 1 g resin, calculated from OD value changes, (0.8 mg×0.4/0.6)/0.0206): approximately 25.9 mg |
| Weakly Acidic Cation-Exchange Resin-Polymixin B Conjugate [1/300] | 400 | 6.7 | 7.7 × 10^6 EU/g | – | – | – | – |
| Weakly Acidic Cation-Exchange Resin-Polymixin B Conjugate [1M/300] | 29 | 120 | 136.3 × 10^6 EU/g | 0 ± 0 | 0/5 | suppressed the development of arthritis almost completely | – |
| Weakly Acidic Cation-Exchange Resin-Polymixin B Conjugate [4/300] | 400 | 6.3 | 7.2 × 10^6 EU/g | – | – | – | – |
| Weakly Acidic Cation-Exchange Resin-Polymixin B Conjugate [4M/300] | 26 | 30 | 29.5 × 10^6 EU/g | 0.8 ± 1.8 | 1/5 | suppressed the development of arthritis almost completely | – |
